In the supplement of paper PMC10949913:

Key:
Conditions in all cases: 48 h
CU-ACC2 [1] = test: area under concentration-response curve (viability) (AUC (a.u.)); higher = less active
How it was run: (§1)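 Luminescence from CellTiter-Glo, read after 48 h, measured three adrenocortical carcinoma cell lines treated in 1,536-well plates with library compounds at 11 concentrations. Values were normalised per plate to vehicle and empty-well controls. The AC50 and area under the curve come from fitted concentration-response curves in inhibitory or non-responding classes only.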

NCI-H295R [2] = test: as above
How it was run: as §1

CU-ACC2 [3] = test: AC50 viability; higher = less potent
How it was run: as §1

NCI-H295R [4] = test: AC50 viability; higher = less potent
How it was run: as §1

CU-ACC1 = test: area under concentration-response curve (viability) (AUC (a.u.)); higher = less active
How it was run: as §1

Compound | area under concentration-response curve (CU-ACC2 [1]) | area under concentration-response curve (NCI-H295R [2]) | AC50 viability (CU-ACC2 [3]) [µM] | AC50 viability (NCI-H295R [4]) [µM] | area under concentration-response curve (CU-ACC1)
Cc1cc(C(=O)Nc2cc(Nc3ccc4c(/C=C/c5ccccn5)[nH]nc4c3)ccc2F)n(C)n1 | 572 | 525 | 23.5 | 23.5 | 
COc1cc2c(Nc3ccc(NC(=O)c4ccccc4)cc3)ncnc2cc1OCCCN1CCOCC1 | 566 | 505 | 20.9 | 18.6 | 
CC(C)(C)c1cc(NC(=O)Nc2ccc(-c3cn4c(n3)sc3cc(OCCN5CCOCC5)ccc34)cc2)no1 | 539 | 511 | 3.72 |  | 489
CC1(C)CNc2cc(NC(=O)c3cccnc3NCc3ccncc3)ccc21 | 317 | 373 | 0.263 |  | 379
CCOc1cc2ncc(C#N)c(Nc3ccc(OCc4ccccn4)c(Cl)c3)c2cc1NC(=O)/C=C/CN(C)C | 572 | 543 | 16.6 |  | 562
COc1ccc(-c2cc3nccn3c(Nc3ncccc3C(N)=O)n2)cc1OC | 415 | 427 | 6.61 |  | 436
COC1=CC(=C2C(=O)N(COC/3=C/C(=O)N4\C=C/C=C(OCCN5CCCCC5)\C4=N3)[S+]([O-])(=O)C2=C1)C(C)C | 584 | 541 | 20.9 | 37.2 | 
O=C(Nc1cccc(Nc2ncc(Br)c(NCCc3cnc[nH]3)n2)c1)N1CCCC1 | 418 | 397 | 16.6 | 23.5 | 
C=CC(=O)N1CCC[C@H](n2c(=O)n(-c3ccc(Oc4ccccc4)cc3)c3c(N)ncnc32)C1 | 410 | 410 | 20.9 |  | 352
CC(C)OC(=O)[C@H](C)N[P@](=O)(OC[C@H]1O[C@@H](N2\C=C/C(=O)NC2=O)[C@](C)(F)[C@@H]1O)OC3=CC=CC=C3 | 414 | 386 | 5.9 |  | 388
CN(C1=CC=CC=C1)C(=O)C/2=C(O)/C3=C(C=CC=C3)N(C)C2=O | 399 | 317 | 37.2 |  | 344
CN[C@@H](C)C(=O)N[C@H](C(=O)N1CCC[C@H]1C(=O)Nc1snnc1-c1ccccc1)C1CCCCC1 | 405 | 401 | 1.66 |  | 413
FC(F)(F)c1ccc(Nc2nc(-c3c(C(F)(F)F)nc4ccccn34)cs2)cc1 | 529 | 413 | 20.9 | 5.25 | 
CC(C)N(CCC(=O)c1ccc2ccccc2c1)Cc1ccccc1 | 609 | 603 | 20.9 |  | 557
COc1cc2nc(-c3cc(F)ccc3O)nc(N[C@@H]3CNC[C@H]3C(C)(C)O)c2cc1OC | 430 | 412 | 4.17 | 3.72 | 
Cc1cc(OCc2nnc(SC3CCCC3)n2-c2cccnc2)ccc1-c1ccc([S+](C)(=O)[O-])cc1 | 324 | 362 | 2.35 |  | 271
CN(C)C1=CC=C(C=C1)C(C2=CC=C(C=C2)N(C)C)=C/3\C=C/C(/C=C3)=[N+](C)C |  |  | 4.17 | 4.17 | 
O=C(Nc1ccc2[nH]nc(-c3ccncc3)c2c1)[C@@H]1CCN(CC(=O)N2CCN(c3ccc(-c4ncccn4)cc3)CC2)C1 | 476 | 482 | 11.8 |  | 444
C[N]1C=NC=C1[C@@](N)(C2=CC=C(Cl)C=C2)C3=CC=C4N(C)C(=O)\C=C(\C5=CC=CC(=C5)Cl)C4=C3 | 94.9 | 88.8 | 0.372 | 0.00105 | 
CC(C)(N)c1ccc(-c2nc3ccccc3nc2-c2ccccc2)cc1 | 297 | 354 | 0.372 |  | 336
CN(C)c1ccc2cc(C(=O)N[C@@H](CCCNC(=N)CCl)C(=O)NCc3ccccc3)ccc2c1 | 276 | 247 | 0.118 | 11.8 | 
O=C(Nc1cccc(Cl)c1)Nc1ncc(CCNc2ncnc3ccsc23)s1 | 481 | 342 | 9.34 | 33.2 | 
CCN(CC)C(=S)SSC(=S)N(CC)CC | 465 | 472 | 14.8 |  | 366
CC(C)(C)C(=O)Oc1ccc([S+](=O)([O-])Nc2ccccc2C(=O)NCC(=O)O)cc1 | 313 | 348 | 0.105 |  | 318

Compound | area under concentration-response curve (CU-ACC2 [1]) | area under concentration-response curve (NCI-H295R [2]) | AC50 viability (CU-ACC2 [3]) [µM] | AC50 viability (NCI-H295R [4]) [µM] | area under concentration-response curve (CU-ACC1)
CN(C)C(=O)c1cc2cnc(Nc3ccc(N4CCNCC4)cn3)nc2n1C1CCCC1 | 439 | 474 | 33.2 |  | 434
C=C1C[C@@H]2CC[C@@]34C[C@H]5O[C@H]6[C@@H](O3)[C@H]3O[C@H](CC[C@@H]3O[C@H]6[C@H]5O4)CC(=O)C[C@@H]3[C@@H](OC)[C@@H](C[C@H](O)CN)O[C@H]3C[C@H]3O[C@@H](CC[C@@H]1O2)C[C@@H](C)C3=C | 461 | 436 | 3.4 | 0.00959 | 
O=C(O)c1ccc2cc(-c3ccc(O)c(C45CC6CC(CC(C6)C4)C5)c3)ccc2c1 | 452 | 474 | 5.25 | 3.72 | 
Cc1ccc(Nc2ncc3c(n2)N(C)C(=O)N(c2cc(NC(=O)c4cccc(C(F)(F)F)c4)ccc2C)C3)cn1 | 504 | 532 | 5.25 |  | 501
CC(C)Oc1cc(Nc2nc(N[C@@H](C)c3ccc(F)cn3)ncc2Cl)n[nH]1 | 394 | 353 | 1.32 |  | 325
CCC[C@H](Nc1nc(-c2ccc(NC(=O)NCC)c(OC)c2)ncc1C)c1cccnc1 | 338 | 333 | 0.372 | 1.32 | 
CC(C)COCC(CN(Cc1ccccc1)c1ccccc1)N1CCCC1 (stereo not given) | 583 | 536 | 26.3 | 23.5 | 
Cc1cc2c(cc1CC(=O)c1sccc1[S+](=O)([O-])Nc1onc(C)c1Cl)OCO2 | 242 | 127 | 0.105 | 0.00417 | 
CNC(=O)c1nn(C)c2c1C(C)(C)Cc1cnc(Nc3ccc(N4CCN(C)CC4)cc3)nc1-2 | 483 | 473 | 7.42 | 18.6 | 
Nc1ncnc2c1c(-c1cccc(OCc3ccccc3)c1)cn2[C@H]1C[C@H](CN2CCCC2)C1 | 444 | 358 | 14.8 | 18.6 | 
c1ccc(-c2cc(CCC3CCNCC3)c3ccccc3n2)cc1 | 561 | 469 | 23.5 | 20.9 | 
O=C(NCc1ccc([S+](=O)([O-])c2cccc(C(F)(F)F)c2)cc1)c1cnc2[nH]ncc2c1 | 362 | 407 | 0.0186 |  | 347
Nc1ccc(C(=O)Nc2cccc(-c3nc(N4CCOCC4)c4oc5ncccc5c4n3)c2)cn1 | 414 | 396 | 1.48 |  | 434
N[S+](=O)([O-])c1ccc(Cc2c(-c3cccc(-c4ccccc4)c3)nn(-c3nc(C(=O)O)cs3)c2CC2CC2)cc1 | 388 | 405 | 5.9 |  | 373
CCn1cc(-c2ccnc3[nH]c(-c4cccc(CN(C)C)c4)cc23)c(-c2ccc(NC(=O)N(C)C)cc2)n1 | 578 | 514 | 18.6 | 18.6 | 
Cn1cc(/C=C2\C(=O)Nc3cccnc32)c2ccccc21 | 320 | 373 | 0.105 |  | 349
O=C(NCc1ccccc1)c1csc(Nc2ccncn2)n1 | 501 | 482 | 18.6 | 23.5 | 
COc1cc(OC)c(NC(=O)Nc2cc(C)on2)cc1Cl | 484 | 432 | 23.5 |  | 408
CC(C)(C)OC(=O)CN(Cc1ccc(Cl)cc1)Cc1ccc([N+](=O)[O-])s1 | 479 | 405 | 37.2 |  | 410
COc1ccc(-c2c(-c3ccc(O)cc3O)n[nH]c2C)cc1 | 224 | 71.5 | 0.105 | 0.00296 | 
COC(=O)Nc1nc2cc(Sc3ccccc3)ccc2[nH]1 | 393 | 431 | 5.25 |  | 368
CC(C)c1cccc(C(C)C)c1O | 400 | 415 | 14.8 |  | 362
CCOc1cc(N2CCC(O)CC2)ccc1Nc1ncc2c(n1)N(C)c1ccccc1C(=O)N2C | 525 | 479 | 20.9 |  | 450
CC(/C=C/C(=O)NO)=C\[C@@H](C)C(=O)c1ccc(N(C)C)cc1 | 463 | 487 | 1.05 |  | 417
